Tests used:
Test in all cases: relative viability (nuclei count vs DMSO), 5 days (fraction); higher = more cells survive
NCI-H1792 = tested on: NCI-H1792
In short: (§1)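 A single step with final 0.05% Triton X-100, 1% formaldehyde and 1 ug/ml Hoechst fixed the cells and stained nuclei 5 days after treatment. Lung cancer cell lines in 1536-well plates had been treated by pin tool the day after seeding with one drug alone or a fixed anchor-drug dose plus five library-drug doses (not always all listed) in √10 steps, and nuclei were counted on 4× images. Relative viability is the ratio of nuclei in treated wells to nuclei in vehicle wells, taken as the median of duplicate plates.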

NCI-H1437 = tested on: NCI-H1437
In short: as §1

NCI-H2342 = tested on: NCI-H2342
In short: as §1

A-427 = tested on: A-427
In short: as §1

NCI-H650 = tested on: NCI-H650
In short: as §1

NCI-H1975 = tested on: NCI-H1975
In short: as §1

HCC-15 = tested on: HCC-15
In short: as §1

NCI-H838 = tested on: NCI-H838
In short: as §1

NCI-H23 = tested on: NCI-H23
In short: as §1

SW 900 = tested on: SW 900
In short: as §1

EKVX = tested on: EKVX
In short: as §1

COR-L23 = tested on: COR-L23
In short: as §1

201T = tested on: 201T
In short: as §1

NCI-H1666 = tested on: NCI-H1666
In short: as §1

HCC-827 = tested on: HCC-827
In short: as §1

HCC-44 = tested on: HCC-44
In short: as §1

SK-MES-1 = tested on: SK-MES-1
In short: as §1

NCI-H358 = tested on: NCI-H358
In short: as §1

NCI-H441 = tested on: NCI-H441
In short: as §1

BEN = tested on: BEN
In short: as §1

HARA = tested on: HARA
In short: as §1

NCI-H596 = tested on: NCI-H596
In short: as §1

NCI-H1650 = tested on: NCI-H1650
In short: as §1

Work on `COc1nc(C)cnc1NS(=O)(=O)c1cccnc1-c1ccc(-c2nnco2)cc1` [Zibotentan] + Nc1nc2[nH]cc(CCc3ccc(C(=O)N[C@@H](CCC(=O)O)C(=O)O)cc3)c2c(=O)[nH]1 [Pemetrexed] (partner 0.2 µM) yielded a relative viability (NCI-H1792; first compound 0.08 µM) of 0.911, a relative viability (NCI-H1792; first compound 0.253 µM) of 0.662 and a relative viability (NCI-H1792; first compound 0.8 µM) of 0.813. The relative viability (NCI-H1792; first compound 2.53 µM) was 1.14, the relative viability (NCI-H1437; first compound 0.08 µM) was 0.35 and the relative viability (NCI-H1437; first compound 0.253 µM) was 0.306. For the same compound, the relative viability (NCI-H1437; first compound 0.8 µM) was 0.281, the relative viability (NCI-H1437; first compound 2.53 µM) was 0.32 and the relative viability (NCI-H2342; first compound 0.08 µM) was 0.769. It also gave a relative viability (NCI-H2342; first compound 0.253 µM) of 0.729, a relative viability (NCI-H2342; first compound 0.8 µM) of 0.761 and a relative viability (NCI-H2342; first compound 2.53 µM) of 0.797. The relative viability (A-427; first compound 0.08 µM) was 1.18, the relative viability (A-427; first compound 0.253 µM) was 1.01 and the relative viability (A-427; first compound 0.8 µM) was 0.95. The relative viability (A-427; first compound 2.53 µM) was 1.07, the relative viability (NCI-H650; first compound 0.08 µM) was 0.947 and the relative viability (NCI-H650; first compound 0.253 µM) was 0.927. For the same compound, the relative viability (NCI-H650; first compound 0.8 µM) was 0.905, the relative viability (NCI-H650; first compound 2.53 µM) was 0.977 and the relative viability (NCI-H1975; first compound 0.08 µM) was 0.308. It also gave a relative viability (NCI-H1975; first compound 0.253 µM) of 0.281, a relative viability (NCI-H1975; first compound 0.8 µM) of 0.289 and a relative viability (NCI-H1975; first compound 2.53 µM) of 0.299. It also gave a relative viability (HCC-15; first compound 0.08 µM) of 0.221, a relative viability (HCC-15; first compound 0.253 µM) of 0.22 and a relative viability (HCC-15; first compound 0.8 µM) of 0.217. For the same compound, the relative viability (HCC-15; first compound 2.53 µM) was 0.227, the relative viability (NCI-H838; first compound 0.08 µM) was 0.249 and the relative viability (NCI-H838; first compound 0.253 µM) was 0.234. It also gave a relative viability (NCI-H838; first compound 0.8 µM) of 0.23, a relative viability (NCI-H838; first compound 2.53 µM) of 0.252 and a relative viability (NCI-H23; first compound 0.08 µM) of 0.738. It also gave a relative viability (NCI-H23; first compound 0.253 µM) of 0.395, a relative viability (NCI-H23; first compound 0.8 µM) of 0.456 and a relative viability (NCI-H23; first compound 2.53 µM) of 0.915. The relative viability (SW 900; first compound 0.08 µM) was 0.503, the relative viability (SW 900; first compound 0.253 µM) was 0.461 and the relative viability (SW 900; first compound 0.8 µM) was 0.656. The relative viability (SW 900; first compound 2.53 µM) was 0.472, the relative viability (EKVX; first compound 0.08 µM) was 0.347 and the relative viability (EKVX; first compound 0.253 µM) was 0.384. It also gave a relative viability (EKVX; first compound 0.8 µM) of 0.372, a relative viability (EKVX; first compound 2.53 µM) of 0.463 and a relative viability (COR-L23; first compound 0.08 µM) of 0.214. The relative viability (COR-L23; first compound 0.253 µM) was 0.185, the relative viability (COR-L23; first compound 0.8 µM) was 0.207 and the relative viability (COR-L23; first compound 2.53 µM) was 0.204. It also gave a relative viability (201T; first compound 0.08 µM) of 0.327, a relative viability (201T; first compound 0.253 µM) of 0.355 and a relative viability (201T; first compound 0.8 µM) of 0.247. For the same compound, the relative viability (201T; first compound 2.53 µM) was 0.323, the relative viability (NCI-H1666; first compound 0.08 µM) was 0.842 and the relative viability (NCI-H1666; first compound 0.253 µM) was 0.726. For the same compound, the relative viability (NCI-H1666; first compound 0.8 µM) was 0.862, the relative viability (NCI-H1666; first compound 2.53 µM) was 0.829 and the relative viability (HCC-827; first compound 0.08 µM) was 0.262. It also gave a relative viability (HCC-827; first compound 0.253 µM) of 0.272, a relative viability (HCC-827; first compound 0.8 µM) of 0.241 and a relative viability (HCC-827; first compound 2.53 µM) of 0.294. The relative viability (HCC-44; first compound 0.08 µM) was 0.629, the relative viability (HCC-44; first compound 0.253 µM) was 0.657 and the relative viability (HCC-44; first compound 0.8 µM) was 0.589. For the same compound, the relative viability (HCC-44; first compound 2.53 µM) was 0.666, the relative viability (SK-MES-1; first compound 0.08 µM) was 0.953 and the relative viability (SK-MES-1; first compound 0.253 µM) was 0.815. It also gave a relative viability (SK-MES-1; first compound 0.8 µM) of 0.827, a relative viability (SK-MES-1; first compound 2.53 µM) of 1.03 and a relative viability (NCI-H358; first compound 0.08 µM) of 0.189. For the same compound, the relative viability (NCI-H358; first compound 0.253 µM) was 0.141, the relative viability (NCI-H358; first compound 2.53 µM) was 0.184 and the relative viability (NCI-H441; first compound 0.08 µM) was 0.284. It also gave a relative viability (NCI-H441; first compound 0.253 µM) of 0.298, a relative viability (NCI-H441; first compound 0.8 µM) of 0.262 and a relative viability (NCI-H441; first compound 2.53 µM) of 0.249. For the same compound, the relative viability (BEN; first compound 0.08 µM) was 0.781, the relative viability (BEN; first compound 0.253 µM) was 0.707 and the relative viability (BEN; first compound 0.8 µM) was 0.774. The relative viability (BEN; first compound 2.53 µM) was 0.722, the relative viability (HARA; first compound 0.08 µM) was 0.247 and the relative viability (HARA; first compound 0.8 µM) was 0.183. For the same compound, the relative viability (HARA; first compound 2.53 µM) was 0.292, the relative viability (NCI-H596; first compound 0.08 µM) was 0.455 and the relative viability (NCI-H596; first compound 0.253 µM) was 0.429. It also gave a relative viability (NCI-H596; first compound 0.8 µM) of 0.522, a relative viability (NCI-H596; first compound 2.53 µM) of 0.501 and a relative viability (NCI-H1650; first compound 0.08 µM) of 0.364. It also gave a relative viability (NCI-H1650; first compound 0.8 µM) of 0.387 and a relative viability (NCI-H1650; first compound 2.53 µM) of 0.402.

From the supplement of paper PMC10307832
